Measured values taken from publication PMC8760370, “Combinatorial inhibition of BTK, PI3K-AKT and BRD4-MYC as a strategy for treatment of mantle cell lymphoma” (Molecular Biomedicine, 2022).
Read-outs that look alike come from different tables or passages of the source.

Columns and labels:
[1] = system: BTK and AKT phosphorylation; experiment: Inhibitor washout assay, Mino cells; format: cell-based, human; conditions: 1 h treatment, washes with PBS
Method: The BCR pathways in the washed cells were stimulated with 10 μg/mL of goat F(ab’)2 anti-human IgM antibody, and the cells were harvested and lysed. The resulting lysates were analyzed by western blot.

JeKo-1 cells [2] = experiment: Cell viability assay (alamarBlue / CellTiter-Glo), JeKo-1; format: cell-based; conditions: Homo sapiens, JeKo-1, 48 h; read-out: IC50, anti-proliferative activity, JeKo-1
Method: (§2) Cells were treated with DMSO (0.1% final) or increasing concentrations of the indicated inhibitors for 48 h. 100 μL of Alamar blue (ThermoFisher Scientific) and Cell titer Glow assay reagent (Promega Cat # G9241) was added to each well, and the cells were incubated for 10 min at room temperature. Luminescence signal was measured in a VarioScan multimode reader. For Alamar Blue, fluorescence signals were read (emission at 590 nm after excitation at 560 nm). Averaged values were normalized as a percentage of DMSO (control) and analyzed by nonlinear regression then plotted for dose response using GraphPad Prism (GraphPad Software, Inc.). Experiments were performed in triplicate.

Mino cells [3] = experiment: Cell viability assay (alamarBlue / CellTiter-Glo), Mino; format: cell-based; conditions: Homo sapiens, 48 h, read-out: IC50, anti-proliferative activity, Mino
Method: as §2

JeKo-1 BTK C481S cells = experiment: Cell viability assay, JeKo-1 BTK C481S; format: cell-based; conditions: Homo sapiens, JeKo-1, 48 h
Method: as §2

Mino BTK C481S cells = experiment: Cell viability assay, Mino BTK C481S; format: cell-based; conditions: Homo sapiens, 48 h
Method: as §2

JeKo-1 cells [4] = experiment: FITC Annexin V apoptosis assay, JeKo-1; format: cell-based, human; conditions: JeKo-1, 5 μM, 24 h
Method: Jeko-1 and Mino cells were seeded at a density of 2x10^6 cells and incubated overnight. […] The labeled cells were analyzed using BD Accuri C6 Flow cytometer. Experiments were performed in duplicate.

Mino cells [5] = experiment: FITC Annexin V apoptosis assay, Mino; format: cell-based, human; conditions: 5 μM, 24 h
Method: Jeko-1 and Mino cells were seeded at a density of 2x10^6 cells and incubated overnight. […] Cells were harvested and washed twice with cold PBS, and then labeled with Annexin V-FITC and PI (BD Pharmingen, Cat # 556419) or Annexin APC (Thermo Fisher, Cat # A35110) according to the manufacturer’s protocol (BD Pharmingen). The labeled cells were analyzed using BD Accuri C6 Flow cytometer. Experiments were performed in duplicate.

[6] = system: relapsed/refractory (R/R) MCL patients; conditions: R/R MCL patients treated with Ibrutinib; cited from earlier work
BTK WT = target: T1, BTK WT (Homo sapiens, UniProt Q06187); experiment: Kinase activity assay, BTK WT; format: biochemical
T1 construct: purchased Reaction Biology (contract assay)

[7] = target: T2, BTK C481S (Ibrutinib-resistant mutant) (Homo sapiens, UniProt Q06187, C481S); experiment: Kinase activity assay, BTK C481S; format: biochemical
T2 construct: purchased Reaction Biology (contract assay)

PI3Kα = target: T3, PI3Kα (Homo sapiens, UniProt P42336); experiment: Adapta kinase activity assay, PI3Kα; format: biochemical
T3 construct: purchased ThermoFisher Scientific (contract assay)
Method: (§1) Adapta kinase activity assays were carried out by ThermoFisher Scientific (Waltham, MA) to measure IC50 of the indicated inhibitors for PI3K isoforms. Kinase activity assays were carried out by Reaction Biology (Malvern, PA) to measure IC50 of the indicated inhibitors for BTK WT and BTK C481S (Ibrutinib-resistant mutant). Alpha Screen assays were carried out by Reaction Biology (Malvern, PA) to measure IC50 of the indicated inhibitors for His-tagged BRD4 BD1 and BD2 bromodomains.

PI3Kγ = target: T4, PI3Kγ (Homo sapiens, UniProt P48736); experiment: Adapta kinase activity assay, PI3Kγ; format: biochemical
T4 construct: purchased ThermoFisher Scientific (contract assay)
Method: as §1

PI3Kδ = target: T5, PI3Kδ (Homo sapiens, UniProt O00329); experiment: Adapta kinase activity assay, PI3Kδ; format: biochemical
T5 construct: purchased ThermoFisher Scientific (contract assay)
Method: as §1

T3 sequence (P42336 whole entry): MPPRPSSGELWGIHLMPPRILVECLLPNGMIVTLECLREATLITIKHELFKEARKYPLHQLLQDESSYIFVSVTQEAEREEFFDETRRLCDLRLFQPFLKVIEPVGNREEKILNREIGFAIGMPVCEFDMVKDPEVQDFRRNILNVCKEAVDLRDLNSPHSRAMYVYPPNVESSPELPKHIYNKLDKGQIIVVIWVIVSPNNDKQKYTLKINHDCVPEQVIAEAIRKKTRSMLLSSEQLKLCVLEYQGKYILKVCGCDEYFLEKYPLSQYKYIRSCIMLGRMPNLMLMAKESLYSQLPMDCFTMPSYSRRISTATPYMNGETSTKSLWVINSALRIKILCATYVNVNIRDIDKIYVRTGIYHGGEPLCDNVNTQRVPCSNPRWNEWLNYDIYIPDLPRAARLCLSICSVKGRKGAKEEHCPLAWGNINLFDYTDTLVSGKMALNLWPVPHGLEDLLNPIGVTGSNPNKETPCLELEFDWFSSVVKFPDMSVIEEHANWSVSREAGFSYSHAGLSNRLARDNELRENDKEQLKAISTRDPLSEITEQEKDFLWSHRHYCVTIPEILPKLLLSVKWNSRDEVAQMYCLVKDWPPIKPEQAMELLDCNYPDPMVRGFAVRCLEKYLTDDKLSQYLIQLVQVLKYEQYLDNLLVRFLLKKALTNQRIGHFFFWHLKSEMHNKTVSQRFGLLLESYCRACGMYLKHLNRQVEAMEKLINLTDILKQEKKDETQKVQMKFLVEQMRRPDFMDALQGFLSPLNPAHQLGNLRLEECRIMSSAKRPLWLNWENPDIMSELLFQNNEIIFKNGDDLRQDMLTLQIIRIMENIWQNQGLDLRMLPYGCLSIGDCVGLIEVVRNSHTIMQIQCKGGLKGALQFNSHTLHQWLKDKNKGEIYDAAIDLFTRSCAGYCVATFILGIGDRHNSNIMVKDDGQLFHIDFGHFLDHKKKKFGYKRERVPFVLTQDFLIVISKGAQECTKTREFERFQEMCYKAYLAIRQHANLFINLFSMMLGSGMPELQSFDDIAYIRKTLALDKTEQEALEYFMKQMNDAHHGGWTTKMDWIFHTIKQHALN
T3 sequence (P27986 whole entry partner): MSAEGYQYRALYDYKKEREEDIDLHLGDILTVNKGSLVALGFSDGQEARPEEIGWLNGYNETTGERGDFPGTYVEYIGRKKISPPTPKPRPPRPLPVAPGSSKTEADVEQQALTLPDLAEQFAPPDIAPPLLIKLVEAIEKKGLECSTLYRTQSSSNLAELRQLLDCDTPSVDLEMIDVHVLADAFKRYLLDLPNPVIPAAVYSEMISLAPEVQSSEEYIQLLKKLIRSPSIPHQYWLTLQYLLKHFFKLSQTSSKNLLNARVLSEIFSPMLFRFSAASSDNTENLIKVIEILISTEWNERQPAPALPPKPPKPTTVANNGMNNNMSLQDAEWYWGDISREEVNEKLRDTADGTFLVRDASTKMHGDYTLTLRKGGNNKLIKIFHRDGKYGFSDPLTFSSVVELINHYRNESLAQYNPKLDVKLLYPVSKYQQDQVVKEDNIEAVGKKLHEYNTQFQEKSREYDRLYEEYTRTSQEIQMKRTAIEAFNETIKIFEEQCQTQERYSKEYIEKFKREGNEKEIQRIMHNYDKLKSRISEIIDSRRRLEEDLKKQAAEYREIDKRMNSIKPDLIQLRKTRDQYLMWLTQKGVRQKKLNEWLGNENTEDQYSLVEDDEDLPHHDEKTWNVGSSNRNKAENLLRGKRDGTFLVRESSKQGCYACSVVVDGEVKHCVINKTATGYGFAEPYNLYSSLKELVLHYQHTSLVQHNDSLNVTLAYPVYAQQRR
T5 sequence (O00329 whole entry): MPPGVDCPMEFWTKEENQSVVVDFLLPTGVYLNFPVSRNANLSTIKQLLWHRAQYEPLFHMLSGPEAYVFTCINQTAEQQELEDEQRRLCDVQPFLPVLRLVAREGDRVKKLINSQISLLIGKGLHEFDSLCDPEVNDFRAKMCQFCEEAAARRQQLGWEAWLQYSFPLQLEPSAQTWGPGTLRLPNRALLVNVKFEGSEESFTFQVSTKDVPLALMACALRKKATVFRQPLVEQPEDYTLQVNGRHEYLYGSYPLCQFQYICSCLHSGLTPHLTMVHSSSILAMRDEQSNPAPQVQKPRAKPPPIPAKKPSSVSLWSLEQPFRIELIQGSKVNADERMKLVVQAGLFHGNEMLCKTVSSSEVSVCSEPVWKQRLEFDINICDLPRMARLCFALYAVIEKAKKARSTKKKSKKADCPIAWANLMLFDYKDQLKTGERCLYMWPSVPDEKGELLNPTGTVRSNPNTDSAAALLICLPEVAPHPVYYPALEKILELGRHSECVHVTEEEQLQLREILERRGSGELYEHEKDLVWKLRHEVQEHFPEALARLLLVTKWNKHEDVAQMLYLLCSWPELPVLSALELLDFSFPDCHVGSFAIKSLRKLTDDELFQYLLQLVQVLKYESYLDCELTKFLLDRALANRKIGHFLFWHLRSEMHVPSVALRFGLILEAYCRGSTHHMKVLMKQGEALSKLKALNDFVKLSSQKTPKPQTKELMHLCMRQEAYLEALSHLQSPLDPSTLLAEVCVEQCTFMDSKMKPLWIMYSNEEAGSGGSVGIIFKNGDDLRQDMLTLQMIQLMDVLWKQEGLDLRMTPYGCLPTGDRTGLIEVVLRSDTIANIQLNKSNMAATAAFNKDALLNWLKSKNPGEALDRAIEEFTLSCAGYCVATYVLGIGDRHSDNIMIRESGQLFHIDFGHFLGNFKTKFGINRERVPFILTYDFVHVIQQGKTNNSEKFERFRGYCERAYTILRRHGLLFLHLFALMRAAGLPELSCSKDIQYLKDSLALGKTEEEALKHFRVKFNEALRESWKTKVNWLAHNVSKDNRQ
T5 sequence (P27986 whole entry partner): as the sequence (P27986 whole entry partner) above
T4 sequence (P48736 whole entry): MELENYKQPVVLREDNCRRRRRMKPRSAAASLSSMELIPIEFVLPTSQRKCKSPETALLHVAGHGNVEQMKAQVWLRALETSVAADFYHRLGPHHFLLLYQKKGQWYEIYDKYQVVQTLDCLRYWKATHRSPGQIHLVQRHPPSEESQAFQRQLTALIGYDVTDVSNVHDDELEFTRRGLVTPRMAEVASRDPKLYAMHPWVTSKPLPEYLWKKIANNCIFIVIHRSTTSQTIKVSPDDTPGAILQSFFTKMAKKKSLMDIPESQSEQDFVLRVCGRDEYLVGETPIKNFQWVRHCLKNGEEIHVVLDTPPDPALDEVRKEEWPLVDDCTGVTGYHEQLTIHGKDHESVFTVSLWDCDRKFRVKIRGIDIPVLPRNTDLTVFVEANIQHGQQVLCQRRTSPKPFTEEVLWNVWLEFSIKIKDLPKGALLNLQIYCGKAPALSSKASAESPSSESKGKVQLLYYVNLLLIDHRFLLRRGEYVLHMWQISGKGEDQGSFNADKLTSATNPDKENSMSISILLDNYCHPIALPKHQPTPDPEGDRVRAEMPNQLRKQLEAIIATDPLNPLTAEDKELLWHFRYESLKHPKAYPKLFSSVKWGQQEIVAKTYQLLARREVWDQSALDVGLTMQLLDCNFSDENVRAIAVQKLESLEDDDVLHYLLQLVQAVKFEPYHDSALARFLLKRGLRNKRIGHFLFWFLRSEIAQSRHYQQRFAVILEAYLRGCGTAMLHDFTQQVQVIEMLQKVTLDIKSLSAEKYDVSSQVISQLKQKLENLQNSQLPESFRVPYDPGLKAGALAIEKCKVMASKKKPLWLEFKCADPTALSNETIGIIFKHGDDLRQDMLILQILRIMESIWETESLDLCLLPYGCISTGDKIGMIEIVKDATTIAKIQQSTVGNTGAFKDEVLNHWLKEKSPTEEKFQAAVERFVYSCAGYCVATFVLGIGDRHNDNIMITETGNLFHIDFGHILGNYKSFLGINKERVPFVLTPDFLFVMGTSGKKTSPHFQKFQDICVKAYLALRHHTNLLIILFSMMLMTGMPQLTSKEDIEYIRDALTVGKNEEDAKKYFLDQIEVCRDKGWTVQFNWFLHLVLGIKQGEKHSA
T2 sequence (Q06187 whole entry C481S): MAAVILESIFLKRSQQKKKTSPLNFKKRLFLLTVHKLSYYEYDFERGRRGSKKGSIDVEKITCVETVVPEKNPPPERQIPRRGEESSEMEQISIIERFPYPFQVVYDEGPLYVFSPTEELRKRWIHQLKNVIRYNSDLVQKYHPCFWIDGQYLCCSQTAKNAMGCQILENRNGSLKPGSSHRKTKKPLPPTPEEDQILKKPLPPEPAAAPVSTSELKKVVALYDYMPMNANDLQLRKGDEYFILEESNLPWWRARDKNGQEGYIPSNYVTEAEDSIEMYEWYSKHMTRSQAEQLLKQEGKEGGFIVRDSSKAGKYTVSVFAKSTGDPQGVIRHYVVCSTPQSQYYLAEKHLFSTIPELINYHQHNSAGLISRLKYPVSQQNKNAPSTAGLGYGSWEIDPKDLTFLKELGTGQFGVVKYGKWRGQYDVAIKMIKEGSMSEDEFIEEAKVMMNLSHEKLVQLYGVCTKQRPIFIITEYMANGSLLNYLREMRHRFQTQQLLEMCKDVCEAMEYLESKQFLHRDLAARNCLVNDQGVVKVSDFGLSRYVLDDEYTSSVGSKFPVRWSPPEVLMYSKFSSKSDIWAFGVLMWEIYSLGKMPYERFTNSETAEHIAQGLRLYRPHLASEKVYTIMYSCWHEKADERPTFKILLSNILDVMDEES
T1 sequence (Q06187 whole entry): as the sequence (Q06187 whole entry C481S) above, with S481C counted along it

Cc1c(-c2ccc(C(N)=O)c3[nH]c4cc(C(C)(C)O)ccc4c23)cccc1-n1cnc2ccccc2c1=O [BMS-935177]
BTK phosphorylation after inhibitor wash out [1]: regained BTK phosphorylation

C=CC(=O)N1CCC[C@@H](n2nc(-c3ccc(Oc4ccccc4)cc3)c3c(N)ncnc32)C1 [Ibrutinib]
IC50 (JeKo-1 cells [2]): 24.8 µM
IC50 (Mino cells [3]): 2.44 µM
IC50 (JeKo-1 BTK C481S cells; read-out: IC50, JeKo-1 BTK C481S): 38 µM
IC50 (JeKo-1 BTK C481S cells; read-out: IC50, anti-proliferative activity, JeKo-1 BTK C481S): 38.4 µM
IC50 (Mino BTK C481S cells; read-out: IC50, Mino BTK C481S): 6 µM
IC50 (Mino BTK C481S cells; read-out: IC50, anti-proliferative activity, Mino BTK C481S): 6.36 µM
BTK phosphorylation after inhibitor wash out [1]: retained inhibition of BTK phosphorylation
apoptosis (Annexin V and propidium incorporation) (JeKo-1 cells [4]): no significant effect
apoptosis (Annexin V and propidium incorporation) (Mino cells [5]): mild effect
median progression free survival [6]: ~ 14 months
overall response rate [6]: 68%
patients reaching a complete response [6]: 21%

Cc1sc2c(c1C)C(c1ccc(Cl)cc1)=N[C@@H](CC(=O)OC(C)(C)C)c1nnc(C)n1-2 [JQ1]
IC50, BTK WT (BTK WT): no activity
IC50, BTK C481S [7]: no activity
IC50 (PI3Kα): > 50 µM
IC50 (PI3Kγ): > 50 µM
IC50 (PI3Kδ): > 50 µM

CN[C@@H]1C[C@H]2O[C@@](C)([C@@H]1OC)n1c3ccccc3c3c4c(c5c6ccccc6n2c5c31)C(=O)NC4 [Staurosporine]
IC50, PI3Kα (PI3Kα): no activity
IC50, PI3Kγ (PI3Kγ): no activity
IC50, PI3Kδ (PI3Kδ): no activity
